The values that follow come from patent publication EP1073431B1, “USE OF NMDA ANTAGONISTS FOR TREATMENT OF IRRITABLE BOWEL SYNDROME” (AstraZeneca AB, priority 1998, dated 1999).

Experiment [1] relates to visceromotor response (VMR) elicited by colorectal distension (CRD). As to the kind of experiment: visceromotor response (VMR) elicited by colorectal distension (CRD) in conscious rats. To be noted: for VMR to noxious CRD: CRD 80 mmHg, naive rats; for effect on VMR to CRD: 1-100 nmol, hydrochloride. In kind it is in vivo, Sprague-Dawley rats. On the procedure: Adult male Sprague-Dawley rats (250-350g, Harlan, San Diego, CA) served as animal subjects. Rats were housed 5-6 per cage, allowed free access to food and water, and were maintained on a 12 h light-dark cycle (lights on between 06.00 and 18.00 h).
Rats were deeply anesthetized with pentobarbital sodium (45 mg/kg, Nembutal, Abbott Labs, North Chicago, IL) administered intraperitoneally. […] The electrode leads were tunneled subcutaneously and exteriorized at the nape of the neck for future access. Some animals were also implanted with venous catheters in the femoral vein to enable i.v. administration of drugs. For intrathecal (i.t.) drug administration, an i.t. catheter (PE-10 tubing, 8.5 cm long) was inserted through the dura overlying the atlanto-occipital junction and threaded to the level of the lumbar enlargement (Yaksh and Rudy, 1976). The venous or i.t. catheter was surgically anchored to musculature at the back of the neck, and externalized with the electrode leads. The wounds were closed in layers with 4-0 silk. Rats were housed singly and allowed to recuperate for at least 3-5 days prior to testing.
The stimulus employed has been previously described (Gebhart and Sengupta, 1996). Briefly, the descending colon and rectum were distended by pressure-controlled air inflation of a 6 cm long flexible latex balloon tied around a flexible tube (Tygon). The balloon was lubricated (Surgilube, E. Fougera and Co., Melville, NY), inserted intra-anally and anchored by taping the balloon catheter to the base of the tail. […] The behavioral response quantified was the visceromotor response, a contraction of the abdominal and hindlimb (Ness and Gebhart, 1988). EMG activity in the external oblique musculature was quantified by computing the average amplitude (Dr. Alfred Bayati Astra Hässle). Each distension trial lasted 60 s and EMG activity was quantified 20 s before distension (baseline), during distension, and 20 s after distension. The increase in EMG amplitude during distension over baseline was recorded as the response.
On the day of testing, animals were briefly anesthetized with Metophane®, and the balloon was inserted and secured in place as described above. Rats were allowed to recover for 30-40 min, following which two stable control responses to CRD (80 mmHg, 20 s, 4 min interstimulus interval) were obtained.
Drugs were administered i.v. into the femoral vein through the indwelling catheter. All doses were administered in a volume of up to 230 µl followed by a flush with 100 µl of preservative-free saline over a period of 30s. Dose response curves were generated using a cumulative dosing paradigm. The first i.v. injection was made 2 min after the second control response. Subsequent doses were injected 8 min apart, thus allowing two distensions after each dose. Data are reported as the average response to the two distensions.
In one group of animals, memantine was administered to the lumbar enlargement through the indwelling i.t. catheter with the aid of a […] injection needle connected to a 25 ul Hamilton syringe by a length of polyethylene tubing (PE-10). All doses were administered in a volume of 5 µl followed by a flush with 10 µl of preservative-free saline over a period of 1 min. The progress of the injection was continuously monitored by following the movement of an air bubble in the tubing. The dose response curve was generated using a cumulative dosing paradigm. The first i.t. injection was made 2 min after the second control response. Subsequent doses were injected 8 min apart, thus allowing two distensions after each dose. Data are reported as the average response to the two distensions. […]

Experiment [2] concerns pelvic afferent nerve activity. Kind of experiment: pelvic afferent nerve activity elicited by colorectal distension in anesthetized rats. It counts as in vivo, Sprague-Dawley rats. To be noted: intra-arterial, cumulative 1, 3, 6 and 10 mg/kg; CRD 80 mm Hg. On the procedure:
General procedures: Male Sprague-Dawley rats 425-450 g) were anesthetized initially with sodium pentobarbital (40-45 mg/kg ip) and maintained with α-chloralose (60 mg kg^-1 h^-1). The trachea was cannulated for mechanical ventilation with room air. The left common carotid artery was cannulated for recording blood pressure. The femoral artery and vein were catheterized for injection of drug and anesthetic, respectively. Rats were paralyzed with pancuronium bromide (0.3 mg/kg i.v.) and ventilated with room air (55-60 strokes/min and 3-4 ml stroke volume). Supplemental doses of pancuronium bromide (0.2-0.3 mg kg^-1 h^-1) were given to maintain paralysis during the course of experiment. The mean arterial blood pressure was monitored continuously and maintained at >80 mm Hg with supplemental intravenous injection of 5% dextrose in saline given in a bolus of 1 to 1.5 ml as required. […]
Recordings of afferent nerve action potentials: The S1 dorsal root was identified and decentralized at its entry to the spinal cord. […] Electrical activity of single units was recorded monopolarly by placing a teased fiber over one arm of a bipolar silver-silver chloride electrode; a fine strand of connective tissue was placed across the other pole of the electrode. […]

The mark [3] stands for this setting: i.v., 1-10 mg/kg, conscious rats (figure legends).
[4] abbreviates: i.v., most effective dose tested 60 mg/kg.
Where [5] appears, read: intrathecal (i.t.), up to a dose of 300nmol, conscious rats.

SMILES strings stand for the structures. Structures can show the parent of a compound that is named as a salt.

For `CCNC(Cc1cnccn1)c1ccccc1` (single isomer, unassigned; (+)) [Compound 3, (+) N-ethyl-1-phenyl-2-(3-pyrazine)ethanamine hydrochloride], in experiment [1] (setting [3]), the “effect on viscero-motor responses (VMR) to noxious colorectal distension” value (from here on “effect on viscero-motor responses (VMR)”) is “dose-dependently (1-10 mg/kg) attenuated VMR”. In addition, the “VMR to noxious CRD” value in experiment [1] (setting [4]) is listed as 5 % of control.
Consider `N=C(N)c1cccc(CC(N)c2ccccc2)n1` (stereo not shown) [Compound 1, 2-amidino-6-(2-amino-2-phenyl)-ethylpyridine trihydrochloride], for which the “effect on viscero-motor responses (VMR)” value in experiment [1] (setting [3]) is reported as “dose-dependently (1-10 mg/kg) attenuated VMR”; in experiment [1] (setting [5]), “None of the three compounds attenuated VMR”. Moreover, the “VMR to noxious CRD” value in experiment [1] (i.v., most effective dose tested (dose not given)) is given as 13 % of control.
With `Cl.NCC(=O)NC(Cc1ccccc1)c1ccccc1` (stereo not shown) [Compound 2, 2-amino-N-(1,2-diphenylethyl)acetamide hydrochloride], the entries for the “effect on viscero-motor responses (VMR)” value in experiment [1] (setting [3]) and in experiment [1] (setting [5]) were “dose-dependently (1-10 mg/kg) attenuated VMR” and “None of the three compounds attenuated VMR”, respectively. Besides, the “VMR to noxious CRD” value in experiment [1] (setting [4]) is recorded as 40 % of control.
`Cl.NC(Cn1cccn1)c1ccccc1` (stereo not drawn) [Compound 4, alpha-phenyl-1H-pyrazole-1-ethanamine hydrochloride]: the entries for the “effect on viscero-motor responses (VMR)” value in experiment [1] (setting [3]) and in experiment [1] (setting [5]) were “dose-dependently (1-10 mg/kg) attenuated VMR” and “None of the three compounds attenuated VMR”, respectively. In addition, the “VMR to noxious CRD” value in experiment [1] (i.v., most effective dose tested 100 mg/kg) is 10 % of control.
In the case of `CC12CC3CC(C)(C1)CC(N)(C3)C2` [memantine, memantine hydrochloride, reference compound], the “pelvic nerve activity elicited by distention of the colon” value in experiment [2] is given as “reduced, in a dose-dependent fashion”. In addition, in experiment [1] (setting [3]), the “effect on viscero-motor responses (VMR)” value was “dose-dependantly attenuate VMR”. Besides, the “VMR to noxious CRD” value in experiment [1] (i.v., most effective dose tested 10 mg/kg) was 28 % of control. In addition, the “effect on VMR to CRD” value in experiment [1] (intrathecal (i.t.), conscious rats) is given as “without effect”; in experiment [1] (intrathecal (i.t.), conscious rats, listed as Memantine), “did not attenuate VMR”.
